Measurements as given in ChEMBL document CHEMBL5046233, “Nitroxoline and its derivatives are potent inhibitors of metallo-β-lactamases” (Eur J Med Chem, 2022).
≈ marks a conversion by molar mass, not a printed value. Calls of active or inactive are those of the source. No cut-off for these calls is given here.

What was measured:
[1] = Inhibition of recombinant NDM-1 (unknown origin) using fluorocillin as substrate at 10 uM incubated for 30 mins by fluorescence based assay; conditions: Bacteria
[2] = Cytotoxicity against human HUVEC cells assessed as metabolic activity measured after 24 hrs by cell-titer blue assay; format: toxicity, cell-based
[3] = tested on: Bacteria; assay: Inhibition of recombinant IMP-1 (unknown origin) using fluorocillin as substrate at 10 uM incubated for 30 mins by fluorescence based assay
[4] = tested on: Bacteria; assay: Inhibition of recombinant VIM-1 (unknown origin) using fluorocillin as substrate at 10 uM incubated for 30 mins by fluorescence based assay
[5] = tested on: Bacteria; assay: Inhibition of recombinant IMP-1 (unknown origin) using fluorocillin as substrate at 30 uM incubated for 30 mins by fluorescence based assay
[6] = Inhibition of recombinant NDM-1 (unknown origin) using fluorocillin as substrate at 3 uM incubated for 30 mins by fluorescence based assay; conditions: Bacteria
[7] = tested on: Bacteria; assay: Inhibition of recombinant VIM-1 (unknown origin) using fluorocillin as substrate at 3 uM incubated for 30 mins by fluorescence based assay
[8] = Inhibition of recombinant NDM-1 (unknown origin) using fluorocillin as substrate at 30 uM incubated for 30 mins by fluorescence based assay; conditions: Bacteria
[9] = tested on: Bacteria; assay: Inhibition of recombinant VIM-1 (unknown origin) using fluorocillin as substrate at 30 uM incubated for 30 mins by fluorescence based assay
[10] = tested on: Bacteria; assay: Inhibition of recombinant IMP-1 (unknown origin) using fluorocillin as substrate at 3 uM incubated for 30 mins by fluorescence based assay
[11] = tested on: Escherichia coli; assay: Antimicrobial activity against Escherichia coli clinical isolate T2228 expressing VIM-1 assessed as inhibition of bacterial growth by CLSI protocol based broth microdilution assay; format: functional
[12] = tested on: Klebsiella pneumoniae; assay: Antimicrobial activity against Klebsiella pneumoniae clinical isolate T2301 expressing NDM-1 assessed as inhibition of bacterial growth by CLSI protocol based broth microdilution assay; format: functional
[13] = tested on: Escherichia coli; conditions: T2228
[14] = tested on: Citrobacter freundii; assay: Antimicrobial activity against Citrobacter freundii expressing T2431 KPC-3 assessed as inhibition of bacterial growth by CLSI protocol based broth microdilution assay; format: functional
[15] = tested on: Escherichia coli; assay: Antimicrobial activity against Escherichia coli T2351 expressing NDM-5 assessed as inhibition of bacterial growth by CLSI protocol based broth microdilution assay; format: functional
[16] = tested on: Klebsiella pneumoniae; assay: Antimicrobial activity against Klebsiella pneumoniae T2216 expressing VIM-1 assessed as inhibition of bacterial growth by CLSI protocol based broth microdilution assay; format: functional
[17] = tested on: Escherichia coli; assay: Antimicrobial activity against Escherichia coli T2433 expressing OXA-48 assessed as inhibition of bacterial growth by CLSI protocol based broth microdilution assay; format: functional
[18] = tested on: Pseudomonas aeruginosa; assay: Antimicrobial activity against Pseudomonas aeruginosa T2229 expressing SPM-1 assessed as inhibition of bacterial growth by CLSI protocol based broth microdilution assay; format: functional
[19] = tested on: Pseudomonas aeruginosa; assay: Antimicrobial activity against Pseudomonas aeruginosa T2282 expressing VIM-2 assessed as inhibition of bacterial growth by CLSI protocol based broth microdilution assay; format: functional
[20] = tested on: Escherichia coli; assay: Antimicrobial activity against Escherichia coli T2359 expressing VIM-1 assessed as assessed as inhibition of bacterial growth at 0.5XMIC measured after 24 hrs by time-kill assay; format: functional, organism-based
[21] = tested on: Citrobacter freundii; assay: Antimicrobial activity against Citrobacter freundii T2354 expressing VIM-4 assessed as inhibition of bacterial growth by CLSI protocol based broth microdilution assay; format: functional
[22] = tested on: Pseudomonas aeruginosa; assay: Antimicrobial activity against Pseudomonas aeruginosa T2357 expressing VIM-1 assessed as inhibition of bacterial growth by CLSI protocol based broth microdilution assay; format: functional
[23] = tested on: Enterobacter cloacae; assay: Antimicrobial activity against Enterobacter cloacae T2311 expressing NDM-1 assessed as inhibition of bacterial growth by CLSI protocol based broth microdilution assay; format: functional
[24] = tested on: Pseudomonas aeruginosa; assay: Antimicrobial activity against Pseudomonas aeruginosa T2217 expressing VIM-2 assessed as inhibition of bacterial growth by CLSI protocol based broth microdilution assay; format: functional
[25] = tested on: Klebsiella pneumoniae; assay: Antimicrobial activity against Klebsiella pneumoniae T2301 expressing NDM-1 assessed as assessed as inhibition of bacterial growth at 0.5XMIC measured after 24 hrs by time-kill assay; format: functional, organism-based
[26] = tested on: Enterobacter cloacae; assay: Antimicrobial activity against Enterobacter cloacae T2353 expressing VIM-1 assessed as inhibition of bacterial growth by CLSI protocol based broth microdilution assay; format: functional
[27] = tested on: Enterobacter cloacae; assay: Antimicrobial activity against Enterobacter cloacae T2218 expressing GIM-1 assessed as inhibition of bacterial growth by CLSI protocol based broth microdilution assay; format: functional
[28] = tested on: Pseudomonas aeruginosa; assay: Antimicrobial activity against Pseudomonas aeruginosa T1098 expressing IMP-7 assessed as inhibition of bacterial growth by CLSI protocol based broth microdilution assay; format: functional
[29] = tested on: Pseudomonas aeruginosa; assay: Antimicrobial activity against Pseudomonas aeruginosa T2283 expressing VIM-2 assessed as inhibition of bacterial growth by CLSI protocol based broth microdilution assay; format: functional
[30] = tested on: Escherichia coli; assay: Antimicrobial activity against Escherichia coli T2544 expressing VIM-1 assessed as inhibition of bacterial growth by CLSI protocol based broth microdilution assay; format: functional
[31] = tested on: Escherichia coli; assay: Antimicrobial activity against Escherichia coli T2359 expressing NDM-1 assessed as inhibition of bacterial growth by CLSI protocol based broth microdilution assay; format: functional
[32] = tested on: Klebsiella pneumoniae; assay: Antimicrobial activity against Klebsiella pneumoniae T2301 expressing NDM-1 assessed as inhibition of bacterial growth at 0.5XMIC for 6 hrs by CLSI protocol based broth microdilution assay; format: functional, organism-based
[33] = tested on: Escherichia coli; assay: Antimicrobial activity against Escherichia coli T2359 expressing VIM-1 assessed as inhibition of bacterial growth at 0.5XMIC for 6 hrs by CLSI protocol based broth microdilution assay; format: functional, organism-based
[34] = tested on: Escherichia coli; assay: Antimicrobial activity against Escherichia coli T2435 expressing KPC-2 assessed as inhibition of bacterial growth by CLSI protocol based broth microdilution assay; format: functional
[35] = tested on: Klebsiella pneumoniae; assay: Antimicrobial activity against Klebsiella pneumoniae T2432 expressing KPC-9 assessed as inhibition of bacterial growth by CLSI protocol based broth microdilution assay; format: functional
[36] = tested on: Serratia marcescens; assay: Antimicrobial activity against Serratia marcescens T2352 expressing NDM-1 assessed as inhibition of bacterial growth by CLSI protocol based broth microdilution assay; format: functional
[37] = tested on: Pseudomonas aeruginosa; assay: Antimicrobial activity against Pseudomonas aeruginosa T2325 expressing IMP-1 assessed as inhibition of bacterial growth by CLSI protocol based broth microdilution assay; format: functional

For `O=[N+]([O-])c1ccc(O)c2ncccc12` [NITROXOLINE], which inhibition [1] is on record?
Its inhibition is 81%.

What about the IC50 at 24 h [2] of the same compound?
Its IC50 at 24 h is 283 µg/mL (≈ 1490 µM).

What about the inhibition [3] of the same compound?
Its inhibition is 42%.

What about the inhibition [4] of the same compound?
Its inhibition is 31%.

What about the inhibition [5] of the same compound?
The inhibition was 95%.

And the inhibition [6]?
The inhibition was under 20%.

What about the inhibition [7] of the same compound?
Its inhibition is under 20%.

What about the inhibition [8] of the same compound?
Its inhibition is 99%.

And the inhibition [9]?
Its inhibition is 75%.

What about the inhibition [10] of the same compound?
Its inhibition is under 20%.

Which results are given for `C[C@@H](O)[C@H]1C(=O)N2C(C(=O)O)=C(S[C@@H]3CN[C@H](C(=O)N(C)C)C3)[C@H](C)[C@H]12` [MEROPENEM]?
MIC [11]: 0.008 µg/mL (≈ 0.0209 µM); MIC [12]: 0.128 µg/mL (≈ 0.334 µM)

Which MIC [13] does the source give for GENTAMICIN here?
The MIC was 0.002 µg/mL.

What does the source list for `C[C@@H](O)[C@H]1C(=O)N2C(C(=O)O)=C(SCCNC=N)C[C@H]12` [IMIPENEM ANHYDROUS]?
MIC [14]: 0.008 µg/mL (≈ 0.0267 µM); MIC [15]: 0.008 µg/mL (≈ 0.0267 µM); MIC [16]: 0.004 µg/mL (≈ 0.0134 µM); MIC [17]: 0.002 µg/mL (≈ 0.00668 µM); MIC [18]: 0.512 µg/mL (≈ 1.71 µM); MIC [11]: 0.008 µg/mL (≈ 0.0267 µM); MIC [19]: 0.256 µg/mL (≈ 0.855 µM); inhibition [20]: Active; MIC [21]: 2 µg/mL (≈ 6.68 µM); MIC [22]: 0.256 µg/mL (≈ 0.855 µM); MIC [23]: 0.008 µg/mL (≈ 0.0267 µM); MIC [24]: 0.256 µg/mL (≈ 0.855 µM); inhibition [25]: Active; MIC [26]: 0.008 µg/mL (≈ 0.0267 µM); MIC [27]: 0.002 µg/mL (≈ 0.00668 µM); MIC [28]: 0.128 µg/mL (≈ 0.428 µM); MIC [12]: 0.016 µg/mL (≈ 0.0534 µM); MIC [29]: 0.032 µg/mL (≈ 0.107 µM); MIC [30]: 0.032 µg/mL (≈ 0.107 µM); MIC [31]: 0.128 µg/mL (≈ 0.428 µM); inhibition [32]: Active; inhibition [33]: Active; MIC [34]: 0.004 µg/mL (≈ 0.0134 µM); MIC [35]: 0.032 µg/mL (≈ 0.107 µM); MIC [36]: 0.256 µg/mL (≈ 0.855 µM); MIC [37]: 0.032 µg/mL (≈ 0.107 µM)
